# In ChEMBL document CHEMBL1201862, “PubChem BioAssay data set” (2004):
# The source made the active and inactive calls.
# Columns and labels:
# [1] = target: Opioid receptors; mu & delta (Homo sapiens, UniProt P41143+P35372); assay: agonists of MOR-DOR heterodimerization, dose response, cell-based, luminescence (AID 588407); format: functional
# [2] = target: Delta-type opioid receptor (Homo sapiens, UniProt P41143); assay: Counterscreen for agonists of heterodimerization of the mu 1 (OPRM1) and delta 1 (OPRD1) opioid receptors: Luminescence-based cell-based high throughput dose response assay to identify agonists of OPRD1 homodimerization. [Related pubchem assays (depositor defined):AID504326, AID504355, AID504692, AID504904, AID504905]; format: functional
# Sequence of Delta-type opioid receptor (P41143 whole entry): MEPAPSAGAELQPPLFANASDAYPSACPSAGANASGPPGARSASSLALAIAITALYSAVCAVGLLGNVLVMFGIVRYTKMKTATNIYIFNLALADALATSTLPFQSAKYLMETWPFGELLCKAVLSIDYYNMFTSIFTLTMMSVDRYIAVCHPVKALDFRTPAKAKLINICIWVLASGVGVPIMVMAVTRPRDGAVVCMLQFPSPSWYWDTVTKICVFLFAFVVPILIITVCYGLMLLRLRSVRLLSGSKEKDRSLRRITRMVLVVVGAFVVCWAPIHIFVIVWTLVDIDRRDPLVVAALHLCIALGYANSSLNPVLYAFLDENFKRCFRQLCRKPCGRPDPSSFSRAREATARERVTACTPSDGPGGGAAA
# Mu-type opioid receptor = Mu-type opioid receptor (Homo sapiens, UniProt P35372); assay: Counterscreen for agonists of heterodimerization of the mu 1 (OPRM1) and delta 1 (OPRD1) opioid receptors: Luminescence-based cell-based high throughput dose response assay to identify agonists of OPRM1 homodimerization.; format: functional;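 note: U2OS cells expressing OPRM1 and beta-arrestin as split beta-galactosidase partners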
# Sequence of Mu-type opioid receptor (P35372 whole entry): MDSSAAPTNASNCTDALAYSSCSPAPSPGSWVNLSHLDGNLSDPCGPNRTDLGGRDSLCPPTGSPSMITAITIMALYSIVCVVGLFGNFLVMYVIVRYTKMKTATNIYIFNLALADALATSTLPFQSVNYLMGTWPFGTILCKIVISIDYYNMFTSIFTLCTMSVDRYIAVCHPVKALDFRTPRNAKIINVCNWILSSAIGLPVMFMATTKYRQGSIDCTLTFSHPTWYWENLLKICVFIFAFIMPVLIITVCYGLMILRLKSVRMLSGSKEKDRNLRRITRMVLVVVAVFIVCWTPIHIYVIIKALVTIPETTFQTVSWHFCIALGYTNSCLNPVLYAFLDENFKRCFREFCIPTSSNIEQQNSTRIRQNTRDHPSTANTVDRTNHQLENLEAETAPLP
# [3] = target: 5-hydroxytryptamine receptor 5A (Homo sapiens, UniProt P47898); assay: Counterscreen for agonists of OPRM1-OPRD1 heterodimerization: luminescence-based cell-based high throughput dose response assay to identify agonists of 5-hydroxytryptamine (serotonin) 5A receptor (HTR5A). [Related pubchem assays (depositor defined):AID504326, AID504355, AID504692, AID504904, AID504905]; format: functional
# Sequence of 5-hydroxytryptamine receptor 5A (P47898 whole entry): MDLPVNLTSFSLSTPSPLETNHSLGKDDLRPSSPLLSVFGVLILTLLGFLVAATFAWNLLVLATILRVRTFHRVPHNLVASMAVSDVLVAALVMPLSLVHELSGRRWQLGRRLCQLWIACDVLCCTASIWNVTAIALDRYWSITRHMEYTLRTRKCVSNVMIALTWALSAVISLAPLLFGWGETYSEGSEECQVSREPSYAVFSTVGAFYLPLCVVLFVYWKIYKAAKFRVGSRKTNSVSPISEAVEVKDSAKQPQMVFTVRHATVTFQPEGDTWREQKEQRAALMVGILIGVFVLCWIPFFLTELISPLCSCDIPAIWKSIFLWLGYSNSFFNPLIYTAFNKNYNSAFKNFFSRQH
# [4] = Luminescence Cell-Based Dose Confirmation HTS to Identify Inhibitors of Platelet Dense Granule Release. [Related pubchem assays: 1663 (Primary HTS), 1678 (Summary of Project)]; format: functional
# [5] = HepG2 cell cytotoxicity, dose response, cytotoxicity control, ATP luminescence, cherry-pick, activator set 2 (AID 1053143); format: functional, cell-based
# HeLa = assay: HeLa cell cytotoxicity, dose response, cytotoxicity control for MITF activator project, CellTiter-Glo luminescence, cherry-pick samples (AID 540259); format: functional, cell-based; settings: Homo sapiens
# Streptococcus = assay: Group A Streptococcus viability loss, dose response, counter-screen for streptokinase expression inhibitor project, luminescence, BacTiterGlo (AID 1915); format: functional, organism-based;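 note: potency for reduction of bacterial viability or growth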
# Streptokinase A = target: T1, Streptokinase A (Streptococcus pyogenes serotype M1, UniProt P10520); assay: S. pyogenes streptokinase expression inhibitors, potency, dose response, plasminogen activation absorbance, OD405 (AID 1914); format: functional, Streptococcus pyogenes M1 GAS;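 note: secreted streptokinase activity via plasminogen activation per viability signal from cell pellet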
# T1 sequence (P10520 whole entry): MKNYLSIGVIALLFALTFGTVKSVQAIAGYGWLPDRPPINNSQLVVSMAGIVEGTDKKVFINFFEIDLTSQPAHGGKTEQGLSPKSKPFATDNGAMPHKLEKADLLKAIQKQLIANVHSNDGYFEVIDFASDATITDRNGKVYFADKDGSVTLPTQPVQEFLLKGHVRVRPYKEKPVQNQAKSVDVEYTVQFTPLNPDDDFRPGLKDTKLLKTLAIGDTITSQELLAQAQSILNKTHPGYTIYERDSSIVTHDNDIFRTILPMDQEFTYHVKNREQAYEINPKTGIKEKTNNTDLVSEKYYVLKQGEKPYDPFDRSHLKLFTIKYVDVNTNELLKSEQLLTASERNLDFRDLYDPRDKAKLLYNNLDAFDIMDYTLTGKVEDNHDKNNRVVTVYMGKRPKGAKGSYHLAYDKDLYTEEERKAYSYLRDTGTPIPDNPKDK
# cells = format: functional, cell-based
# [6] = target: T2, Nuclear receptor subfamily 0 group B member 1 (Homo sapiens, UniProt P51843); format: functional, cell-based
# T2 sequence (P51843 whole entry): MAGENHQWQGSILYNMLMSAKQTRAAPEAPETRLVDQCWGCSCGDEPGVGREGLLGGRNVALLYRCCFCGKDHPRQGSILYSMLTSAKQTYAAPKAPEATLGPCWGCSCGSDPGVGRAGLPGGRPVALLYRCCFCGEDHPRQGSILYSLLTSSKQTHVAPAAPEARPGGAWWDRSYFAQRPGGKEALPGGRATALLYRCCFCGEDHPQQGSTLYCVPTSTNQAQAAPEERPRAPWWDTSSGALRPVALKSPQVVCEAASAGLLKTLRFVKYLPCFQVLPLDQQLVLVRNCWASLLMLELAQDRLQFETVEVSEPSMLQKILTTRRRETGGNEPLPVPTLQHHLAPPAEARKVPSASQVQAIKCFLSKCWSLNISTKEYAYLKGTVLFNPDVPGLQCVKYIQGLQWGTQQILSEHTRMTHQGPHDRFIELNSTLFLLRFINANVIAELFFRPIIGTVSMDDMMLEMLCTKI
# [7] = target: Luciferin 4-monooxygenase (Photinus pyralis, UniProt P08659); assay: firefly luciferase enzyme inhibitors, dose response, biochemical, luminescence (AID 1891)
# Sequence of Luciferin 4-monooxygenase (P08659 whole entry): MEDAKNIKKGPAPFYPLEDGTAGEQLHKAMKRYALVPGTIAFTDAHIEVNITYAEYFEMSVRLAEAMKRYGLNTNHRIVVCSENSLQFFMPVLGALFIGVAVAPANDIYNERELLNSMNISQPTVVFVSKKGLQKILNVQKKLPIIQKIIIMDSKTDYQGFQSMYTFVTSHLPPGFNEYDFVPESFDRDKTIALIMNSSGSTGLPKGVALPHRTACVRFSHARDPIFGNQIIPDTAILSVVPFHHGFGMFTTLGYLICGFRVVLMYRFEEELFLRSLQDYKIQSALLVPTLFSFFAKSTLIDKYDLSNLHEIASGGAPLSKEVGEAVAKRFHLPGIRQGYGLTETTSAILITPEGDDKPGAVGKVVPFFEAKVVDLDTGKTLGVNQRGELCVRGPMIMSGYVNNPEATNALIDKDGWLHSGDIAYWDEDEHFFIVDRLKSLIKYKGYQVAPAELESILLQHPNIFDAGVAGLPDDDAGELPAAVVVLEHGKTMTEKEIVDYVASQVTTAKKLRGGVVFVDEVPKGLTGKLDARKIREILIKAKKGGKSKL
# Escherichia coli [8] = assay: microbe, parasite or virus in culture
# Escherichia coli [9] = assay: microbe, parasite or virus in culture; remark: listed apart in the source
# [10] = THP-1 cell cytotoxicity, dose response, cytotoxicity control for Vif-APOBEC3G degradation inhibitor project, THP-1 cells (AID 1117359); format: functional; settings: Human immunodeficiency virus 1, THP-1
# Hexokinase HKDC1 = target: T3, Hexokinase HKDC1 (Homo sapiens, UniProt Q2TB90); assay: HKDC1 hexokinase inhibitors, dose response, biochemical, W721R variant (AID 504729); format: functional
# T3 sequence (Q2TB90 whole entry): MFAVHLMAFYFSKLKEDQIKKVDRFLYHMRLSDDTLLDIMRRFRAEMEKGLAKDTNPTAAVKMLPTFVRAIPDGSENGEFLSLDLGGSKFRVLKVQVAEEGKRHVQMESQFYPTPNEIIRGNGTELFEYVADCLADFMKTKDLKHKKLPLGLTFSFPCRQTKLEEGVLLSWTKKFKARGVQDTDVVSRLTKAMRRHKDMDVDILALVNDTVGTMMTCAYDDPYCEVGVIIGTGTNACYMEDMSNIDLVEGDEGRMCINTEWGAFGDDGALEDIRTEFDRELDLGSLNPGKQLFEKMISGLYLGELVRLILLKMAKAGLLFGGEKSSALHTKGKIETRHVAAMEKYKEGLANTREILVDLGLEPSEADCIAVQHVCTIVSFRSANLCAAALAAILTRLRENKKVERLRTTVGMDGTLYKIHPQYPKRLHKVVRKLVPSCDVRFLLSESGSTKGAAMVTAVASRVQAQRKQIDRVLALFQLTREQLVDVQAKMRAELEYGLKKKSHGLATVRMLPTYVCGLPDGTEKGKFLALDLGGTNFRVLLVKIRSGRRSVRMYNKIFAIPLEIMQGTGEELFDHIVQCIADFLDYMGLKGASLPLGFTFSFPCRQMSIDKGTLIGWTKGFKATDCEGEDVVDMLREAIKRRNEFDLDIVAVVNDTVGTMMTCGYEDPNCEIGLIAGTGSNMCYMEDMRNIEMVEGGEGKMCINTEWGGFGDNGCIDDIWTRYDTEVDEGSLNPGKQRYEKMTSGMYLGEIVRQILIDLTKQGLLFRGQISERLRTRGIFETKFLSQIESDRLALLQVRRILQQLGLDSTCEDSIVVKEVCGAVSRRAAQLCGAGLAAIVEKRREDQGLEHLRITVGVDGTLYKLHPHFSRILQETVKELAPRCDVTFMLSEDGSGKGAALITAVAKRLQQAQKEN
# Nonstructural protein 1 = Nonstructural protein 1 (Influenza A virus, UniProt Q194T2); format: functional, Influenza A virus (A/California/07/2009(H1N1))
# Sequence of Nonstructural protein 1 (Q194T2 whole entry): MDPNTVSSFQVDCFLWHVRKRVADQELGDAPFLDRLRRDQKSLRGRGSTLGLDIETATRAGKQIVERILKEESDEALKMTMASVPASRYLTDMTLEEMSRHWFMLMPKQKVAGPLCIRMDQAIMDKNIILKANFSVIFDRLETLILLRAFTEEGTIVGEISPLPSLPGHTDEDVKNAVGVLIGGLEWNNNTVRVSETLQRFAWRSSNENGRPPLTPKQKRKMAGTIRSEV
# [11] = target: Glucose-6-phosphate 1-dehydrogenase (Homo sapiens, UniProt P11413); assay: human G6PD enzyme inhibitors, dose response, selectivity assay for P. falciparum G6PD inhibitor project, biochemical, fluorescence (AID 504792); format: functional
# Sequence of Glucose-6-phosphate 1-dehydrogenase (P11413 whole entry): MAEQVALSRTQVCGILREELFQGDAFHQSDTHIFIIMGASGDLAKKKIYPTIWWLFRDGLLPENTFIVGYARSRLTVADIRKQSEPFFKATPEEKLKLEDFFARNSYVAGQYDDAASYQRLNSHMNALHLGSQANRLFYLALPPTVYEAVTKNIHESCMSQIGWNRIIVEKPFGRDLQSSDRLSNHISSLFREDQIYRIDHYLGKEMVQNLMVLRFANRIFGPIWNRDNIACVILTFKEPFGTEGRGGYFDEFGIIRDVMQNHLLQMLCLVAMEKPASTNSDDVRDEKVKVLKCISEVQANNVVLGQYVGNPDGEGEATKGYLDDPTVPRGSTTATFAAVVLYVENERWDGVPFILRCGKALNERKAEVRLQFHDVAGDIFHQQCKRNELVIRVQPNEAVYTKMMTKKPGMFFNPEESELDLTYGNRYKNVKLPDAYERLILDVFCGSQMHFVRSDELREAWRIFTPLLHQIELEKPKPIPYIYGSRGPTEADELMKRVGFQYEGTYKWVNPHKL
# [12] = target: T4, Histone-lysine N-methyltransferase NSD2 (Homo sapiens, UniProt O96028); format: biochemical
# T4 sequence (O96028 whole entry): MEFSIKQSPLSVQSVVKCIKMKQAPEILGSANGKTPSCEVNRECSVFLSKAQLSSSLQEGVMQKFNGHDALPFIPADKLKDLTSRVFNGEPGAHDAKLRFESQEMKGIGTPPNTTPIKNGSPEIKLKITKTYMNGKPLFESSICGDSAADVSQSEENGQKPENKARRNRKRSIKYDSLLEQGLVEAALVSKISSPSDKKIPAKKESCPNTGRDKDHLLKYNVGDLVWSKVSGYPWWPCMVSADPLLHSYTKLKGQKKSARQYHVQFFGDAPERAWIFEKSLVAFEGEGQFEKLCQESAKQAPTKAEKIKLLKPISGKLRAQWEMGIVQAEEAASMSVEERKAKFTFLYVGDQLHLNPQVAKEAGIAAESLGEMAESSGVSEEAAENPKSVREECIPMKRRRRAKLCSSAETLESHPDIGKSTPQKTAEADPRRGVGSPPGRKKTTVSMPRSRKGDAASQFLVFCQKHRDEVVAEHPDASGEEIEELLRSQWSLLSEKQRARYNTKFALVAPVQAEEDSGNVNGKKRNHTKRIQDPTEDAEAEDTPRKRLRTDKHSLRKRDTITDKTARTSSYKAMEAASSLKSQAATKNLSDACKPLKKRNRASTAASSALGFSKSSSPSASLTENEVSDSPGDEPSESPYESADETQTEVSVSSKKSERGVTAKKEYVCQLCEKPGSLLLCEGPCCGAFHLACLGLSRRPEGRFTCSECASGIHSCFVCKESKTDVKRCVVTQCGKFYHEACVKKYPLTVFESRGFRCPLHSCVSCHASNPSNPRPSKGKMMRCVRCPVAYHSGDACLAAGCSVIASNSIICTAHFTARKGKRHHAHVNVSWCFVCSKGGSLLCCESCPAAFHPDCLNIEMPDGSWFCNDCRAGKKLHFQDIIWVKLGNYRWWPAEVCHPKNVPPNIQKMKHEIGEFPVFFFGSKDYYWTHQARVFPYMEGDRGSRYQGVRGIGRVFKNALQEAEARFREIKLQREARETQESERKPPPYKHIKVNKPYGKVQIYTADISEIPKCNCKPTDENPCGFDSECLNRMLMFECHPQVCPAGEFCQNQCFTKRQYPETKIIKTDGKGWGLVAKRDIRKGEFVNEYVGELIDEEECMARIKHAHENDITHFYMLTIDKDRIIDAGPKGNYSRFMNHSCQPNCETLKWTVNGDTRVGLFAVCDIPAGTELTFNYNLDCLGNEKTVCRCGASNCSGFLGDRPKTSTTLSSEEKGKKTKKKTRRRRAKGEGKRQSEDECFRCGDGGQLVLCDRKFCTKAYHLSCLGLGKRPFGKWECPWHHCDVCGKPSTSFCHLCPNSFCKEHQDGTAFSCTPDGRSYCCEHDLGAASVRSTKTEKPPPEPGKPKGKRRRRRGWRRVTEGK
# Beta-galactosidase = Beta-galactosidase (Escherichia coli, UniProt Q8VNN2); assay: beta-galactosidase enzyme inhibitors and activators, dose response, artefact control for CCR6 antagonist project, biochemical, E. coli enzyme, set 3 (AID 504712); format: functional
# Vero = Vero cell cytotoxicity, cytotoxicity control for flavivirus capping enzyme inhibitors (AID 588742); format: functional; settings: Chlorocebus sabaeus
# Genome polyprotein = Genome polyprotein (dengue virus type 2, UniProt P29990); assay: Dengue-2 NS5 methyltransferase inhibitors, primary screen, biochemical, confirmation dose response (AID 588689); format: functional
# HEK293 = assay: cells; format: functional, cell-based; settings: Homo sapiens
# [13] = target: T2, Nuclear receptor subfamily 0 group B member 1; assay: Luminescence-based cell-based high throughput dose response assay for inhibitors of the orphan nuclear receptor subfamily 0, group B, member 1 (DAX1; NR0B1). [Related pubchem assays (depositor defined):AID504766, AID504790]; format: functional
# [14] = target: ATP-dependent molecular chaperone HSP82 (Candida albicans (strain WO-1) (Yeast), UniProt C4YTQ8); assay: loss of DOC-induced GRE-beta-galactosidase reporter signal, dose response, Hsp90 inhibitor project, S. cerevisiae, luminescence (AID 2400); format: functional, cell-based;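 note: beta-galactosidase luminescence from glucocorticoid response element reporter as proxy for Hsp90 function; inhibitor potency where signal loss means Hsp90 inhibition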
# Sequence of ATP-dependent molecular chaperone HSP82 (C4YTQ8 whole entry): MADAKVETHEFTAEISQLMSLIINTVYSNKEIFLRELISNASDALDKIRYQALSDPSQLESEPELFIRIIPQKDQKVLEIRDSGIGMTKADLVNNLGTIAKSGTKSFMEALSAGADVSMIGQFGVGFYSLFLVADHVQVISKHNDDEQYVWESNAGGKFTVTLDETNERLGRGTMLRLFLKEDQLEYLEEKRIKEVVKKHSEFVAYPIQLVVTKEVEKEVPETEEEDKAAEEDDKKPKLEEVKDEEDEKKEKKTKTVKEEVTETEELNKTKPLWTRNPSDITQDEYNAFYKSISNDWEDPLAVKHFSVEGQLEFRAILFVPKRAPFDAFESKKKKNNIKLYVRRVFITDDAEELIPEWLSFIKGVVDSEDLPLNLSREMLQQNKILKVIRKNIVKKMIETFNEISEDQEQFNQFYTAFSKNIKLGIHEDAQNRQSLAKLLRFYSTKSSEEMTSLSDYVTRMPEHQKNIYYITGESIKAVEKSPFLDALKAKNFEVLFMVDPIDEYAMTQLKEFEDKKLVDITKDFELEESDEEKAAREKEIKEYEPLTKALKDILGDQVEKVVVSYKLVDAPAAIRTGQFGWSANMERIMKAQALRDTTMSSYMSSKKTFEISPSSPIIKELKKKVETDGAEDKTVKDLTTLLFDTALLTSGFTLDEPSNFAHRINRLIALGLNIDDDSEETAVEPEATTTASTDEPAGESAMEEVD
# [15] = NIH-3T3 fibroblast cytotoxicity, dose response, cytotoxicity control, cell-based, fluorescence, Alamar Blue, secondary assay (AID 2327); format: functional;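 note: NIH-3T3 mouse fibroblasts cultured with fluconazole at 8 µg/mL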
# [16] = target: Serine/threonine-protein phosphatase (Candida dubliniensis (strain CD36 / CBS 7987 / NCPF 3949 / NRRLY-17841) (Yeast), UniProt B9W6M3); assay: calcineurin pathway inhibitors in yeast reporter, dose response, S. cerevisiae, CDRE-lacZ, luminescence, secondary (AID 2388); format: functional, cell-based;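 note: yeast reporter cells carrying a calcineurin-responsive lacZ construct stimulated with calcium chloride; luminescent beta-galactosidase reporter signal in whole cells rather than isolated phosphatase activity; potency for inhibition where a drop in reporter signal means calcineurin blockade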
# Sequence of Serine/threonine-protein phosphatase (B9W6M3 whole entry): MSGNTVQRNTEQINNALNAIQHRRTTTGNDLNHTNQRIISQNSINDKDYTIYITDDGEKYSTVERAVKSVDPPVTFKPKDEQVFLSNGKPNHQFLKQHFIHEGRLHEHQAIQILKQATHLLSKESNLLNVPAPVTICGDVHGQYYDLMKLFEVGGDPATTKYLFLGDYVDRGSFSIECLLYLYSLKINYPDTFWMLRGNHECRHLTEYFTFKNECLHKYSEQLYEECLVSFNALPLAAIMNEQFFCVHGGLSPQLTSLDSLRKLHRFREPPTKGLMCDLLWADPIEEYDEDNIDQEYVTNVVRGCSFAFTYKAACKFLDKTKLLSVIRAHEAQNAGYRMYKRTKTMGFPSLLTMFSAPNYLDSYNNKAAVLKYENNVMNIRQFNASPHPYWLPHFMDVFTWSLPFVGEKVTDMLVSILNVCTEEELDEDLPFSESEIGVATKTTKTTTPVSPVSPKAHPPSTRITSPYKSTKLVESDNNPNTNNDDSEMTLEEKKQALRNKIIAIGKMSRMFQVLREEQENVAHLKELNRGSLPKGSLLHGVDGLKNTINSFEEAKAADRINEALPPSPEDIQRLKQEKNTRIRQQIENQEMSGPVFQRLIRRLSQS
# [17] = target: T5, Rac GTPase-activating protein 1 (Homo sapiens, UniProt Q9H0H5); assay: MgcRacGAP GTPase-activating activity inhibitors, confirmation, biochemical, ADP Hunter fluorescence, primary and confirmatory (AID 624330); format: functional
# T5 sequence (Q9H0H5 whole entry): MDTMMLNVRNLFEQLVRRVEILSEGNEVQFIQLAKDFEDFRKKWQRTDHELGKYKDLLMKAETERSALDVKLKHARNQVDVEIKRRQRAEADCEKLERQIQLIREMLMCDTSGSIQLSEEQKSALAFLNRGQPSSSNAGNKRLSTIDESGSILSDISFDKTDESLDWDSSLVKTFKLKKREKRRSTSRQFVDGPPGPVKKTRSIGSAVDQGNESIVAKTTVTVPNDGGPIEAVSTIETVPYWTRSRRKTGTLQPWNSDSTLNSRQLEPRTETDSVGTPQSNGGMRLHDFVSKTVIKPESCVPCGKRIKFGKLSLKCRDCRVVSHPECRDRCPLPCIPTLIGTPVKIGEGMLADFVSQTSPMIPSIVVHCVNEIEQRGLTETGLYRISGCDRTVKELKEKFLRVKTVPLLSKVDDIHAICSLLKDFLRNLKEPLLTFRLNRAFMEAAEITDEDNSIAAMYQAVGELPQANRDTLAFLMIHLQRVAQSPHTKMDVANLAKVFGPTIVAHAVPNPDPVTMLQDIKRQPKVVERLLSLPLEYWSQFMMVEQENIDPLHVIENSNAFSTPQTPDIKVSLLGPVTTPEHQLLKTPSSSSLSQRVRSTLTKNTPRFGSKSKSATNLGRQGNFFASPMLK
# [18] = C. albicans growth with fluconazole, confirmation, fluorescence, retest (AID 2467); format: functional, cell-based
smiles,measurement,setting,value
COc1ccc(NC(=O)COc2ccccc2C(=O)NCC(c2ccccc2)N(C)C)cc1Cl (centres undefined),EC50,[1],> 3.425 µM
same,EC50,[2],9.79 µM (active)
same,EC50,Mu-type opioid receptor,> 92.5 µM (inactive)
same,EC50,[3],> 92.5 µM (inactive)
O=C(Nc1ccccc1)C(=O)Nc1ccc2c(c1)N(C(=O)C1CC1)CCC2,EC50,[4],3.74 µM (active)
same,AC50,[5],26 µM (active)
same,AC50,HeLa,14.1 µM (active)
same,EC50,Streptococcus,25.4 µM (active)
same,EC50,Streptokinase A,> 150 µM (not active)
same,IC50,cells,> 67.5 µM (inactive)
same,IC50,[6],> 67.5 µM (inactive)
same,EC50,[7],1.13 µM (active)
Cc1nn(C)cc1S(=O)(=O)Nc1ccccc1Br,AC50,Escherichia coli [8],65.8 µM (active)
same,AC50,Escherichia coli [9],66.8 µM (active)
CC1COCC(C)N1C1=C(Cl)C(=O)c2ccccc2C1=O (centres undefined),CC50,[10],16.1 µM (active)
same,IC50,Hexokinase HKDC1,> 80 µM (inactive)
same,IC50,Nonstructural protein 1,17.9 µM (active)
same,IC50,[11],72.9 µM (inactive)
same,AC50,[12],0.873 µM (active)
same,IC50,Beta-galactosidase,> 66.6 µM (inactive)
same,CC50,Vero,23.4 µM (active)
same,IC50,Genome polyprotein,16.2 µM (active)
Cc1nc(N)nc(COc2ccccc2)n1,IC50,HEK293,> 67.4 µM (inactive)
same,IC50,[13],> 67.4 µM (inactive)
COc1ccc(-n2c(=O)c3c4c(sc3n3c(S)nnc23)CCCC4)cc1,EC50,[14],4.45 µM (active)
same,EC50,[15],34.1 µM (inconclusive)
same,EC50,[16],> 180 µM (inactive)
same,IC50,[17],35.7 µM (active)
same,EC50,[18],1.17 µM (active)
